Columns and labels:
[1] = Fluorescence excitation and emission spectra of camptothecin drugs free in solution and bound to liposomes; format: physicochemical; details: for λMAX emission, DMPG: DMPG liposomes 0.29 M; for λMAX emission, DMPG / λMAX emission, PBS / λMAX emission, DMPC: pH 7.4, 37° C.; for λMAX emission, PBS: free in PBS; for Relative Fluorescence: in PBS, pH 7.4, at excitation and emission λMAX; for λMAX excitation: pH 7.4, 2 μM drug, PBS; for λMAX emission, DMPC: DMPC liposomes 0.29 M
Description: The camptothecin drugs are intrinsically intensely fluorescent. Fluorescence is associated with the extended conjugation of the quinoline ring system. The liposomes of Examples 1-7 were characterized for the presence of the camptothecin drugs, using excitation and emission spectrography, and fluorescence anisotropy.
Steady-state fluorescence measurements were obtained on a SLM Model 4800C. spectrofluorometer with a thermostated cuvette compartment. This instrument was interfaced with an IBM PS/2 model 55 SX computer. Excitation and emission spectra were recorded with an excitation resolution of 8 nm and an emission resolution of 4 nm. In all cases spectra were corrected for background fluorescence and scatter from unlabeled lipids or from solvents by subtraction of the spectrum of a blank. Steady-state fluorescence intensity measurements were made in the absence of polarizer. Steady-state anisotropy (a) measurements were determined with the instrument in the "T-format" for simultaneous measurement of two polarized intensities. The alignment of polarizers were checked routinely using a dilute suspension of 0.25 μm polystyrene microspheres from Polysciences, Inc, Warrington, Pa., in water; anisotropy values of >0.99 were obtained. The anisotropy was calculated from a=(Ivv -GlVH)/(Ivv +GIVH), where G-IVH /IHH and the subscripts refer to vertical and horizontal orientations of the excitation and emission polarizers, respectively.
Anisotropy measurements for camptothecin, camptothecin carboxylate sodium salt, and 10,11-methylenedioxycamptothecin were conducted using exciting light of 370 nm and 420 nm long wave pass filters on each emission channel in order to isolate the fluorescence signal from background scatter and signal. For topotecan a 400 nm excitation wavelength and a 500 nm emission filter were used and for 9-aminocamptothecin a 375 nm excitation and a wavelength 420 nm emission filter were used. For AMC and CMC, a 370 nm excitation wavelength and a 400 nm emission filter were used. For 10-hydroxycamptothecin 375 nm excitation wavelength 500 nm emission filter was used. Emission filters were obtained from Oriel Corp. Stamford, Conn. The combination of exciting light and emission filters allows one to adequately separate the fluorescence from the background signal. The contribution of background fluorescence, together with scattered light, was typically less than 1% of the total intensity. Since the lactone ring of the camptothecin drug undergoes hydrolysis in aqueous medium, all measurements were completed within the shortest possible time, less than 1 minute after mixing the drug stock solution with PBS or the liposomes. In each case, analysis was initiated immediately after mixing the drug stock solution with PBS or with the liposomes. All measurements were performed at 37° C. unless otherwise noted.
The relative fluorescence intensity of 1×10^-6 M of camptothecin free in PBS buffer at 37° C. is shown. The emission spectra of the camptothecin was recorded using exciting light of 370 nm.
An exciting light of 390 nm was used to record the emission spectra of topotecan. A decrease in the emission intensity is observed for topotecan associated with the DMPG liposome.
All spectra were recorded using camptothecin drug concentrations of 2
μM. The DMPC and DMPG concentrations were 0.29 M. Experiments were
conducted in PBS buffer at 37° C.
Also found in Table II is a relative index of the emission intensity levels from these camptothecin drugs in PBS at their respective excitation and emission λMAX.

[2] = Overall association constant by fluorescence anisotropy titration, DMPC liposomes; format: physicochemical; details: for overall association constant K, DMPC: DMPC (electroneutral, fluid phase), PBS, 37° C.; for bound drug level, DMPC: DMPC liposomes, 0.29M lipid, estimated; for binding affinity for liposomes (ranking): each type of liposome
Procedure: While the spectral changes provide qualitative evidence that the camptothecin drugs bind the liposome membranes, fluorescence anisotropy titration, offers the most sensitive means for quantitatively assessing the extent of the binding. The fluorescence anisotropy titration was performed according to the method of Burke and Tritton, Biochemistry 24: 1768-1776 (1985).
The concentrations of free camptothecin drugs and camptothecin drugs associated with liposomes were determined at various lipid concentrations. All experiments were conducted in glass tubes pretreated with a silating agent, Surfacil, from Pearce Chemical, Rockford, Ill. The titration was conducted at camptothecin drug concentration of 1×10^-6 M in PBS at 37° C. Anisotropy values at each lipid concentration were determined within less than 30 seconds following the addition of the camptothecin drugs to the liposome suspension. The (a) values were determined for fixed drug concentration, typically 2 μM, while the lipid concentration was varied from 0 to 0.29M. By varying the lipid concentration rather than varying the drug concentration, the problem of self-association phenomenon which occurs for camptothecin drugs concentrations in excess of 10 μM is avoided. Also, the well-known phenomenon known as inner filter effect which occurs using fluorescent material at high optical densities is a is avoided.
Adsorption isotherms like those shown in FIGS. 4A and 4B were used to determine overall association constants for the camptothecin drugs. Overall association constants are defined as: […]
where [AB ] represents the concentration of the camptothecin drug bound to the vesicle membrane, [AF ] represents the concentration of free drug, and [L] represents the total lipid concentration in the liposome suspension. This equation is valid when the concentration of free lipid is approximately equal to the concentration of total lipid, that is, the concentration of free lipid is in great excess over the concentration of bound drug. Provided this concentration is satisfied, K may be determined from the inverse of the slope of a double reciprocal plot according to (Burke and Tritton, Biochemistry 24:1776, 1985). In such a plot, 1/bound fraction of the total camptothecin drug is plotted vs. 1/[lipid], with a y-intercept value of 1.
FIG. 6A is the double-reciprocal plot for the associations of CMC, camptothecin, camptothecin carboylate sodium salt and topotecan with DMPC at 37° C.
The stabilization of camptothecin drugs was determined using different lipids. Three types of lipids (and thus 3 types of membranes) were examined: fluid-phase and electroneutral L-α-dimyristoylphosphatidylcholine (DMPC); fluid-phase and negatively-charged L-α-dimyristoylphosphatidylglycerol (DMPG), and solid-phase and electroneutral L-α-distearoylphosphatidylcholine (DSPC). While DMPC and DMPG have identical chain length, the charge on their head groups differ. DMPC and DSPC have identical head groups, but DMPC has acyl chains having 14 carbons per chain, which are four carbons shorter than the DSPC, which has 18 carbons per chain. This difference of 4-carbon chain length results in DMPC being fluid-phase at 37° C. while DSPC is solid-phase. The 7 camptothecin drugs listed in Table III were combined with liposomes containing the above lipids.
FIGS. 4A and 4B show the extent of camptothecin drug binding to liposomes as a function of lipid concentration for DMPC and DMPG liposomes. DMPC liposomes were made as in Example 1, at lipid concentrations from 0 to 0.29M, using CMC, 10-hydroxycamptothecin, 10,11-methylenedioxy-camptothecin, topotecan, camptothecin, and camptothecin carboxylate sodium salt, as shown in FIG. 4B. DMPG liposomes were made as in Example 2, at lipid concentrations from 0 to 0.29M, using 9-chloro-10,11-methylenedioxycamptothecin CMC, 10,11-methylenedioxycamptothecin, camptothecin, and topotecan, 9-aminocamptothecin, as shown in FIG. 4A. […]

In the case of `CCC1(O)C(=O)OCc2c1cc1n(c2=O)Cc2cc3c(Cl)c4c(cc3nc2-1)OCO4` (centres unmarked) [9-chloro-10,11-methylenedioxycamptothecin], the “λMAX emission, DMPG” value [1] is reported as 417 nm, the “λMAX emission, PBS” value [1] is reported as 410 nm and the “Relative Fluorescence” value [1] is reported as 1. For the same molecule, the λMAX excitation ([1]; 37° C.) was 394 nm, the “overall association constant K, DMPC” value [2] was 400 M⁻¹ and the “bound drug level, DMPC” value [2] was 99%. For the same molecule, the “binding affinity for liposomes (ranking)” value [2] was “highest binding affinity for each type of liposome”.

In the case of `CCC1(O)C(=O)OCc2c1cc1n(c2=O)Cc2cc3cc4c(cc3nc2-1)OCO4` (centres unmarked) [10,11-methylenedioxycamptothecin], the “λMAX emission, DMPC” value [1] is reported as 408 nm, the “λMAX emission, DMPG” value [1] is reported as 408 nm and the “λMAX emission, PBS” value [1] is reported as 410 nm. For the same molecule, the “Relative Fluorescence” value [1] was 1, the λMAX excitation ([1]; 37° C.) was 395 nm and the “binding affinity for liposomes (ranking)” value [2] was “intermediate binding affinities”.

With `CCC1(O)C(=O)OCc2c1cc1n(c2=O)Cc2cc3cc(O)ccc3nc2-1` (centres unmarked) [10-hydroxycamptothecin] the “λMAX emission, DMPC” value [1] was 558 nm, the “λMAX emission, DMPG” value [1] was 550 nm and the “λMAX emission, PBS” value [1] was 561 nm. The “Relative Fluorescence” value [1] was 0.5, the λMAX excitation ([1]; 37° C.) was 392 nm and the “overall association constant K, DMPC” value [2] was 75 M⁻¹.

For `CC[C@@]1(O)C(=O)OCc2c1cc1n(c2=O)Cc2cc3ccccc3nc2-1` [camptothecin], the “λMAX emission, DMPC” value [1] was 433 nm, the “spectral shift on association with DMPC liposomes” value ([1]; DMPC, relative to free drug) was “about 5 nm” and the “λMAX emission, DMPG” value [1] was 422 nm. For the same molecule, the “λMAX emission, PBS” value [1] was 438 nm, the “Relative Fluorescence” value [1] was 1 and the λMAX excitation ([1]; 37° C.) was 366 nm. The “blue shift of emission λmax on binding DMPG liposomes” value ([1]; relative to free camptothecin, 1×10^-6 M, 37° C.) was “about 16 nm”, the “bound drug level, DMPC” value [2] was 97% and the “binding affinity for liposomes (ranking)” value [2] was “intermediate binding affinities”.

For `CC[C@@]1(O)C(=O)OCc2c1cc1n(c2=O)Cc2cc3c(CN(C)C)c(O)ccc3nc2-1` [topotecan], the “shifting in the emission spectrum with DMPG liposomes” value ([1]; 1 μM, DMPG liposomes) was “Only a slight shifting in the emission spectrum”, the “λMAX emission, DMPC” value [1] was 538 nm and the “λMAX emission, DMPG” value [1] was 533 nm. The “λMAX emission, PBS” value [1] was 537 nm, the “Relative Fluorescence” value [1] was 1 and the λMAX excitation ([1]; 37° C.) was 410 nm. For the same molecule, the “reduced propensity to bind electroneutral liposome membranes relative to CMC” value ([2]; DMPC) was 40 -fold, the “overall association constant K, DMPC” value [2] was 10 M⁻¹ and the “bound drug level, DMPC” value [2] was 74%. For the same molecule, the “binding affinity for liposomes (ranking)” value [2] was “lowest binding affinity for liposomes”.
